The text below walks through data of article PMC6081452, “Downstream Products are Potent Inhibitors of the Heparan Sulfate 2-O-Sulfotransferase” (Scientific Reports, 2018).

In experiment [1] the target is T1, non-glyc-HS2ST (non-glycosylated chicken HS2ST), WT (Gallus gallus, UniProt Q76KB1).
T1 construct: made in house; host or cells: E. coli Origami B (DE3)
T1 sequence (Q76KB1 69-356 limits assumed): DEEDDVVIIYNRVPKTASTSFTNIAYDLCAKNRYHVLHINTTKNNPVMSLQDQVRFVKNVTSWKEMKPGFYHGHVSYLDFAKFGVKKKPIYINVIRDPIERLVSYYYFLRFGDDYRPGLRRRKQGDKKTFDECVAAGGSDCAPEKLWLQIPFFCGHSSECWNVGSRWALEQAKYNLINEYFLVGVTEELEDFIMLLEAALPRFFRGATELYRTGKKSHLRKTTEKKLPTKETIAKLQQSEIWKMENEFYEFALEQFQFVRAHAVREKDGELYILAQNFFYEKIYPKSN
As to the kind of experiment: BLI equilibrium binding, non-glyc-HS2ST WT. As to conditions: BLI saturation binding curves, biotin-PEG4-linked hexasaccharide on sensor, n = 3, ± standard error of fit; — = response too weak to fit. From the text:
HS-protein binding studies often utilize biologically-derived oligosaccharides of heterogeneous length and sulfation[34],[35]; however, the synthesis of oligosaccharides with defined length and specific sulfation patterns has recently become possible. We employed biolayer interferometry (BLI) to determine equilibrium surface binding constants (KD) for HS2ST with synthetic HS hexasaccharides (Fig. 1 and Supplementary Table 1). The HS compounds were attached to the BLI biosensor surface to conserve sample and to ensure a significant signal upon protein binding. The HS compounds contained a biotinylated PEG4 linker at the reducing terminus, enhancing the likelihood of a consistent presentation of the linear glycan on the sensor surface, in contrast to immobilizations via intra-chain modifications.
Binding constants were collected for two isoforms of the enzyme; a glycosylated human variant (glyc-HS2ST) expressed in mammalian cell lines, and a highly homologous (96% identity) non-glycosylated chicken isoform expressed in E. coli (non-glyc-HS2ST). […] Thus, the enhanced ligand affinity seen in HS2ST was unexpected and may relate to the specific position of the glycosylation site (N108)[41].
The chicken HS2ST-Maltose Binding Protein (MBP) fusion protein was expressed and purified according to previous studies. The fusion protein was transformed into E. coli Origami B (DE3) cells, cultured at 37 °C until OD600 reached 0.5, then induced with isopropyl-β-D-thiogalactopyranoside and allowed to grow overnight at 20 °C. Cells were sonicated, followed by a two-step purification procedure. Whole-cell supernatant was passed through an amylose column with Tris buffer (25 mM Tris, 500 mM NaCl, pH 7.5). An elution buffer consisted of Tris Buffer with 40 mM Maltose. The amylose column eluent was concentrated and loaded on a Superdex 200 Increase 10/300 GL with PBS buffer (10 mM sodium phosphate, 150 mM NaCl, pH 7.8) to separate trimeric protein from aggregate and independent MBP (Supplementary Fig. 4). All reported mutations formed homotrimeric complexes according to the SEC profiles, including the negative control (NC = R189A/R80E/R184E). Protein concentration was assessed via UV at 280 nm (MW of trimer ~210 KDa, extinction coefficient ~119,000 M^−1 cm^−1 according to ExPASy ProtParam webtool[56]). The trimeric protein preparation was adjusted to 5% glycerol and stored at −20 °C until use. Additional non-glyc-HS2ST constructs were created with the Q5® Mutagenesis kit (New England Biolabs Inc.; cat. # E0554S) and sequenced at the Georgia Genomics Facility at the University of Georgia.
The Octet® RED96 system (FortéBio Inc.) was employed to detect the affinity of the enzymes for specific HS targets. Due to the small size of the glycan and the deep HS2ST binding cavity, the glycan and protein were treated as ligand and analyte, respectively. Varyingly sulfated HS fragments conjugated to biotin linkers were purchased from Glycan Therapeutics Inc. with purities greater than 93% according to HPLC (sequences located in Supplementary Table 1). The glycans were immobilized onto streptavidin (SA) labeled biosensors (FortéBio; cat. #18–5019) at 0.5 µg/mL. Experiments were performed at 25 °C in PBS Buffer (10 mM sodium phosphate, 150 mM NaCl, pH 7.8) with a final concentration of 1X Pall Kinetics buffer (FortéBio Inc; cat. #18–1092). Fresh biosensors and protein samples were used for each measurement (no regeneration step). […]

The target in another experiment is T2, non-glyc-HS2ST WT (Gallus gallus, UniProt Q76KB1).
T2 construct: made in house; host or cells: E. coli Origami B (DE3)
T2 sequence (Q76KB1 69-356 limits assumed): T1 sequence (Q76KB1 69-356 limits assumed)
As to the kind of experiment: Inhibition assay of the reaction between HS2ST and completely de-O-sulfated N-sulfated heparin ([35S]PAPS). Format: biochemical, chicken. As to conditions: for IC50: p-nitrophenol-terminated hexasaccharides, substrate CDNS heparin 1 µg, [35S]PAPS, 37 °C, 1 h, n = 2 or 3. How it is done:
Inhibition assays were thus performed with non-glyc-HS2ST and all compounds except for 1, the enzymatic substrate. […] Compound 5 appeared to inhibit at least as well as the product of the reaction (2); however, the IC50 was not reached even at the maximum substrate concentration (1 mM) for either 2 or 5. The addition of a single sulfate moiety enhanced the potency of the glycan as an inhibitor by ~10-fold (compare 3 and 4). The presence of both 2- and 3-O-sulfate moieties in the hexasaccharide (4) enhanced its inhibitory potential by approximately 100-fold relative to 5. These in vitro inhibition assays indicate that downstream products of the HS biosynthetic pathway could interfere with HS2ST catalysis in vivo.
The same glycan sequences were synthesized[62] for the inhibition assay as were used for the binding studies (Supplementary Table 1), except these terminated in p-nitrophenol rather than the PEG4-Biotin linker. The reaction mixture contained Tris pH 7.5 50 mM, 0.3 µg non-glyc-HS2ST WT, 0.08 nmol ^35S-labeled 3′-phosphoadenosine 5′-phosphosulfate ([^35S] PAPS) (3 × 10^4 cpm), completely de-O-sulfated N-sulfated heparin (CDNS heparin) 1 µg, and either compound 2, 3, 4 (0, 1, 2, 4, 8, and 16 µg) or 5 (2, 20, 60, and 160 µg) in a total volume of 0.1 ml. After incubation at 37 °C for 1 h, the reaction was quenched by adding 1 mL of 0.01% Triton X-100 buffer at pH 5.0 containing 150 mM NaCl, 50 mM NaOAc, 3 M urea and 1 mM ethylenediaminetetraacetic acid (EDTA). The samples were loaded on a small DEAE column (200 µl in size). The column was then washed five times with the same buffer, each time 1 ml. The column was further washed five times with 0.25 M NaCl in 0.001% Triton X-100 buffer each time 1 ml. The column was eluted with 1 ml of 1 M NaCl in 0.001% Triton X-100 buffer. The ^35S cpm of the eluted samples were tested the by a scintillation counter.

A value given as a limit tells only on which side of the number the result lay.

For “GlcNS6S-GlcA-GlcNS3S6S-IdoA2S-GlcNS6S-GlcA~ [Compound 4]”, binding in experiment [1] was characterised by a dissociation constant (Kd) of 0.013 ± 0.003 µM. Moreover, at non-glyc-HS2ST WT (4 relative to 5), the “Enhancement of inhibitory potential relative to 5” value is “approximately 100 fold”. On non-glyc-HS2ST WT (4 versus 3), the “Enhancement of inhibitory potency by addition of a single sulfate moiety (compare 3 and 4)” value is given as ~ 10 fold.
In turn, “GlcNS6S-GlcA-GlcNS6S-GlcA-GlcNS6S-GlcA~ [Compound 5]” displayed a Kd in experiment [1] of 0.072 ± 0.008 µM. Moreover, the IC50 against non-glyc-HS2ST WT was greater than 1000 µM.
“GlcNS6S-GlcA-GlcNS6S-IdoA2S-GlcNS6S-GlcA~ [Compound 3]” came in with a Kd in experiment [1] of 0.042 ± 0.005 µM.
As for “GlcNS-GlcA-GlcNS-IdoA2S-GlcNS-GlcA~ [Compound 2]”, the dissociation constant (Kd) in experiment [1] is greater than 0.5 µM. In addition, the 50% inhibitory concentration (IC50) on non-glyc-HS2ST WT was greater than 1000 µM.
